ChEMBL document CHEMBL1152817, “Prevention of organ allograft rejection by a specific Janus kinase 3 inhibitor” (Science, 2003)

Assays:
[1] = system: HFF; assay: cells; settings: Homo sapiens
Description: Inhibition of fetal calf serum-induced proliferation of human foreskin fibroblast assessed as [3H]thymidine incorporation after 4 days by scintillation counting

[2] = system: T-cell; assay: cells; settings: Homo sapiens
Description: Inhibition of IL2-induced proliferation of human T cells assessed as [3H]thymidine incorporation after 72 hrs by scintillation counting

[3] = target: Tyrosine-protein kinase JAK1 (Homo sapiens, UniProt P23458)
[4] = target: Tyrosine-protein kinase JAK2 (Homo sapiens, UniProt O60674)
[5] = cells; settings: Homo sapiens, HUO3
Description: Inhibition of human GM-CSF-induced proliferation in human HUO3 cells assessed as [3H]thymidine incorporation after 4 days by scintillation counting

Tyrosine-protein kinase JAK2, sequence (O60674 whole entry): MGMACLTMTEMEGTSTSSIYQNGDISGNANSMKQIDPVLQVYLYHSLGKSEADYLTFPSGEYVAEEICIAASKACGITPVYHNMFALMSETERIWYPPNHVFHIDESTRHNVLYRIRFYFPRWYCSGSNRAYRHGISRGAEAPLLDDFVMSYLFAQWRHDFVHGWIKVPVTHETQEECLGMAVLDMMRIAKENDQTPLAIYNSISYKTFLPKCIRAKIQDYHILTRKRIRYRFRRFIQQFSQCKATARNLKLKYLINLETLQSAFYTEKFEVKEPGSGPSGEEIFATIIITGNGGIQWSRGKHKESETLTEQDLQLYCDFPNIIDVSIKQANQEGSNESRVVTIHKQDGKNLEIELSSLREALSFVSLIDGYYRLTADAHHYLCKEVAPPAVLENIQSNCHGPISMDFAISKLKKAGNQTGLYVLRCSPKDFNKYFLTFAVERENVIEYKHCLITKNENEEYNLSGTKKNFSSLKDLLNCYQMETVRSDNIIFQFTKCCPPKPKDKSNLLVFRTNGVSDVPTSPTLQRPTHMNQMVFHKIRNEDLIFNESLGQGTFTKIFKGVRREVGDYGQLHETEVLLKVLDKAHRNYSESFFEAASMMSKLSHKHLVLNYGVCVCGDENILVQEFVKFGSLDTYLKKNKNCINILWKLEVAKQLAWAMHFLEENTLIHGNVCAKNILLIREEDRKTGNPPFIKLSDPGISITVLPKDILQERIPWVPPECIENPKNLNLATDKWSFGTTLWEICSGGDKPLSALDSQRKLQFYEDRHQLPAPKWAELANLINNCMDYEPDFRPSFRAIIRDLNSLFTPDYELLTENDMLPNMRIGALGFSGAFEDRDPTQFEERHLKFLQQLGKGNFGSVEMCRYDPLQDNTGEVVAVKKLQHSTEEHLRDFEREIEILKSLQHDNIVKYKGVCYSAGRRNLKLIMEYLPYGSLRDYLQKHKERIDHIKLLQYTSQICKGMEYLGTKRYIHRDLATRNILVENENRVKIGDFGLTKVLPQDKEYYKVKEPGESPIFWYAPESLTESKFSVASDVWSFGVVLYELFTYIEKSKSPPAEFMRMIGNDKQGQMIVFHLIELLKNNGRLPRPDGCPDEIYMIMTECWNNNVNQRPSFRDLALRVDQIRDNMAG
Tyrosine-protein kinase JAK1, sequence (P23458 whole entry): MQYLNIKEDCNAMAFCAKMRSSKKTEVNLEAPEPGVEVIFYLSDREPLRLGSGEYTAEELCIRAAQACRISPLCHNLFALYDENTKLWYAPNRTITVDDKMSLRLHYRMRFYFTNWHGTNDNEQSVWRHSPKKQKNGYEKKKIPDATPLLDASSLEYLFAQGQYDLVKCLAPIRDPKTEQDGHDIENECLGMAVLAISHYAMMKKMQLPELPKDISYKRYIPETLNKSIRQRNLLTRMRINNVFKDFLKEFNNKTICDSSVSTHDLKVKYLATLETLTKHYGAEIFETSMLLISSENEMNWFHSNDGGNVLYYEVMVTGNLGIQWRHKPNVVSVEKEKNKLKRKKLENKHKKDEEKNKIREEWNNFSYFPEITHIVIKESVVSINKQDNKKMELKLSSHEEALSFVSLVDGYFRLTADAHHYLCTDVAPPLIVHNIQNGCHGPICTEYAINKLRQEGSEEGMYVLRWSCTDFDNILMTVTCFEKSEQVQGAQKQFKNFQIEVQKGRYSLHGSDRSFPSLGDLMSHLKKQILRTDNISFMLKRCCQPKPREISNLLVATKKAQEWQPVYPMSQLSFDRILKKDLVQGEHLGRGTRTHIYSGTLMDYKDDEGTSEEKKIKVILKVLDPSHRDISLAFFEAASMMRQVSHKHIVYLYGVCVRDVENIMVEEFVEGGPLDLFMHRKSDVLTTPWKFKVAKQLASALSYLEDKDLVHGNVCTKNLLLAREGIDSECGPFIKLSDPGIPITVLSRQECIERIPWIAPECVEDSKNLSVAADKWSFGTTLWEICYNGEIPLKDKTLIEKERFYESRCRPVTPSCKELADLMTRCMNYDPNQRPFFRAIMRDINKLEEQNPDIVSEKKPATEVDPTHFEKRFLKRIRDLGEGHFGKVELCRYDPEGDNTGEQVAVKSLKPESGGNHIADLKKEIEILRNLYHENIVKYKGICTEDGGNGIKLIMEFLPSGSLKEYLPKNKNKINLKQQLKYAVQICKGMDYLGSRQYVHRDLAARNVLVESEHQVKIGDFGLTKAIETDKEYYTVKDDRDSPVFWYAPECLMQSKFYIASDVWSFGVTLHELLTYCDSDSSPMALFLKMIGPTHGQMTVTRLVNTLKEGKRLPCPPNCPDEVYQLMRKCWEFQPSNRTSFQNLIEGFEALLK

Row | IC50 [2] [µM] | IC50 [3] [µM] | IC50 [4] [µM] | IC50 [5] [µM] | SMILES | IC50 [1] [µM]
1 | 3.69 |  |  |  | c1ccc2c(c1)C1CCCCC1N2c1ncnc2[nH]ccc12 (stereo not given) | 10
2 | 5.09 | > 10 | > 10 |  | COc1cc2ncnc(Nc3ccc(O)c(Br)c3)c2cc1OC | 6.34
3 | 3.75 | 3.38 | > 10 | 7.56 | N#C/C(=C\c1ccc(O)c(O)c1)C(=O)NCc1ccccc1 | 5.58
4 | > 10 | > 10 | > 10 | > 10 | COc1cc2ncnc(Nc3ccc(O)cc3)c2cc1OC [WHI-P131] | 
